In US10285982B2, “3-(1H-pyrrolo[2,3-B]pyridin-2-yl)-1H-pyrazolo[3,4-C]pyridines and therapeutic uses thereof” (Samumed, LLC, priority 2015, dated 2019):

Legend:
IL-6 (THP-1 cells) = assay: IL-6 inhibition in LPS-stimulated THP-1 cells (HTRF); assay type: cell-based; conditions: Homo sapiens; for EC50: IL-6 in THP-1 cells, LPS 500 ng/mL, 22 hours; for inhibition at 10 µM: given where EC50 >10 μM, IL-6, THP-1 cells, LPS, read-out: percent inhibition at 10 μM
How it was run: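 THP-1 cells, serum-reduced (1% FBS) for 24 h, were preincubated with compound (10-point 1:3 series from 10 μM, 0.1% DMSO) for 2 h, then stimulated with 500 ng/mL LPS for 22 h at 37° C. IL-6 was read by HTRF (665/620 nm ratio) and normalized to DMSO. EC50 from four-parameter fit; % inhibition at 10 μM given if EC50 >10 μM.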

[1] = test system: Wnt activity (Sp5-Luc reporter, SW480 colon carcinoma cells); assay: Wnt activity screening assay, Sp5-Luc reporter gene in SW480 cells; assay type: cell-based; conditions: Homo sapiens; for inhibition at 10 µM: given where EC50 >10 μM, read-out: percent inhibition at 10 μM; for EC50: overnight incubation
How it was run: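 Wnt-driven firefly luciferase in SW480 colon carcinoma cells reports pathway activity after overnight compound exposure (10 μM top concentration, 3-fold steps). Signal is normalized to DMSO controls.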

SMILES | EC50 (IL-6 (THP-1 cells)) | inhibition at 10 µM (IL-6 (THP-1 cells)) | inhibition at 10 µM [1] | EC50 [1]
CN(C)Cc1cncc(-c2cc3c(-c4cc5c(-c6ccncc6)ccnc5[nH]4)n[nH]c3cn2)c1 [Compound 125, N,N-Dimethyl-1-(5-(3-(4-(pyridin-4-yl)-1H-pyrrolo[2,3-b]pyridin-2-yl)-1H-pyrazolo[3,4-c]pyridin-5-yl)pyridin-3-yl)methanamine] | > 10 µM | 34.4% | 12.6% | > 10 µM
CC(C)C(=O)Nc1cncc(-c2cc3c(-c4cc5c(-c6ccc(F)cc6)ccnc5[nH]4)n[nH]c3cn2)c1 [Compound 37, N-(5-(3-(4-(4-Fluorophenyl)-1H-pyrrolo[2,3-b]pyridin-2-yl)-1H-pyrazolo [3,4-c]pyridin-5-yl)pyridin-3-yl)isobutyramide] | > 10 µM | 25.4% |  | 0.671 µM
O=C(Nc1cncc(-c2cc3c(-c4cc5c(-c6cccc(F)c6)ccnc5[nH]4)n[nH]c3cn2)c1)C1CC1 [Compound 20, N-(5-(3-(4-(3-Fluorophenyl)-1H-pyrrolo[2,3-b]pyridin-2-yl)-1H-pyrazolo [3,4-c]pyridin-5-yl)pyridin-3-yl)cyclopropanecarboxamide] | > 10 µM | 42.8% |  | 0.097 µM
CC(C)Nc1cncc(-c2cc3c(-c4cc5c(-c6cccnc6)ccnc5[nH]4)n[nH]c3cn2)c1 [Compound 96, N-Isopropyl-5-(3-(4-(pyridin-3-yl)-1H-pyrrolo[2,3-b]pyridin-2-yl)-1H-pyrazolo[3,4-c]pyridin-5-yl)pyridin-3-amine] | > 10 µM | 23.5% | 30.3% | > 10 µM
O=C(Cc1ccccc1)Nc1cncc(-c2cc3c(-c4cc5c(-c6ccccc6F)ccnc5[nH]4)n[nH]c3cn2)c1 [Compound 66, N-(5-(3-(4-(2-Fluorophenyl)-1H-pyrrolo[2,3-b]pyridin-2-yl)-1H-pyrazolo [3,4-c]pyridin-5-yl)pyridin-3-yl)-2-phenylacetamide] | > 10 µM | 35.8% |  | 0.139 µM
c1cncc(-c2ccnc3[nH]c(-c4n[nH]c5cnc(-c6cncc(CN7CCCC7)c6)cc45)cc23)c1 [Compound 98, 3-(4-(Pyridin-3-yl)-1H-pyrrolo[2,3-b]pyridin-2-yl)-5-(5-(pyrrolidin-1-ylmethyl)pyridin-3-yl)-1H-pyrazolo[3,4-c]pyridine] | > 10 µM | 27.7% | 25.2% | > 10 µM
CN1CCN(c2ccnc3[nH]c(-c4n[nH]c5cnc(-c6cncc(CNCC7CCCC7)c6)cc45)cc23)CC1 [Compound 249, 1-Cyclopentyl-N-((5-(3-(4-(4-methylpiperazin-1-yl)-1H-pyrrolo[2,3-b]pyridin-2-yl)-1H-pyrazolo[3,4-c]pyridin-5-yl)pyridin-3-yl)methyl)methanamine] | 7.87 µM |  | 41.4% | > 10 µM
O=C(Nc1cncc(-c2cc3c(-c4cc5cccnc5[nH]4)n[nH]c3cn2)c1)C1CCCCC1 [Compound 275, N-(5-(3-(1H-Pyrrolo[2,3-b]pyridin-2-yl)-1H-pyrazolo[3,4-c]pyridin-5-yl)pyridin-3-yl)cyclohexanecarboxamide] | > 10 µM | 24.7% | 14% | > 10 µM
CCCCC(=O)Nc1cncc(-c2cc3c(-c4cc5c(-c6cccnc6)ccnc5[nH]4)n[nH]c3cn2)c1 [Compound 103, N-(5-(3-(4-(Pyridin-3-yl)-1H-pyrrolo[2,3-b]pyridin-2-yl)-1H-pyrazolo[3,4-c]pyridin-5-yl)pyridin-3-yl)pentanamide] | > 10 µM | 17.8% | 7.8% | > 10 µM
CN1CCN(c2ccnc3[nH]c(-c4n[nH]c5cnc(-c6cncc(N(C)C)c6)cc45)cc23)CC1 [Compound 231, N,N-Dimethyl-5-(3-(4-(4-methylpiperazin-1-yl)-1H-pyrrolo[2,3-b]pyridin-2-yl)-1H-pyrazolo[3,4-c]pyridin-5-yl)pyridin-3-amine] | > 10 µM | 3.7% | 8.2% | > 10 µM
CCC(=O)Nc1cncc(-c2cc3c(-c4cc5c(-c6cccc(F)c6)ccnc5[nH]4)n[nH]c3cn2)c1 [Compound 1, N-(5-(3-(4-(3-Fluorophenyl)-1H-pyrrolo[2,3-b]pyridin-2-yl)-1H-pyrazolo [3,4-c]pyridin-5-yl)pyridin-3-yl)propionamide] | > 10 µM | 23.6% | 24.3% | > 10 µM
Fc1cccc(-c2ccnc3[nH]c(-c4n[nH]c5cnc(-c6cccnc6)cc45)cc23)c1 [Compound 4, 3-(4-(3-Fluorophenyl)-1H-pyrrolo[2,3-b]pyridin-2-yl)-5-(pyridin-3-yl)-1H-pyrazolo[3,4-c]pyridine] | > 10 µM | 21.3% |  | 1.21 µM
CN(C)CCOc1cncc(-c2cc3c(-c4cc5c(-c6cccnc6)ccnc5[nH]4)n[nH]c3cn2)c1 [Compound 563, N,N-Dimethyl-2-((5-(3-(4-(pyridin-3-yl)-1H-pyrrolo[2,3-b]pyridin-2-yl)-1H-pyrazolo[3,4-c]pyridin-5-yl)pyridin-3-yl)oxy)ethan-1-amine] | > 10 µM | 15% | 28.8% | > 10 µM
c1ccc(-c2cc3c(-c4cc5c(-c6ccncc6)ccnc5[nH]4)n[nH]c3cn2)nc1 [Compound 140, 5-(Pyridin-2-yl)-3-(4-(pyridin-4-yl)-1H-pyrrolo[2,3-b]pyridin-2-yl)-1H-pyrazolo[3,4-c]pyridine] | > 10 µM | 23.5% | 24.3% | > 10 µM
O=C(Nc1cncc(-c2cc3c(-c4cc5c(-c6ccncc6)ccnc5[nH]4)n[nH]c3cn2)c1)C1CCC1 [Compound 133, N-(5-(3-(4-(Pyridin-4-yl)-1H-pyrrolo[2,3-b]pyridin-2-yl)-1H-pyrazolo[3,4-c]pyridin-5-yl)pyridin-3-yl)cyclobutanecarboxamide] | > 10 µM | 11.9% | 1.8% | > 10 µM
Fc1cccc(-c2ccnc3[nH]c(-c4n[nH]c5cnc(-c6cncnc6)cc45)cc23)c1 [Compound 27, 3-(4-(3-Fluorophenyl)-1H-pyrrolo[2,3-b]pyridin-2-yl)-5-(pyrimidin-5-yl)-1H-pyrazolo[3,4-c]pyridine] | > 10 µM | 43.9% |  | 0.507 µM
O=C(Nc1cncc(-c2cc3c(-c4cc5cccnc5[nH]4)n[nH]c3cn2)c1)C1CC1 [Compound 272, N-(5-(3-(1H-Pyrrolo[2,3-b]pyridin-2-yl)-1H-pyrazolo[3,4-c]pyridin-5-yl)pyridin-3-yl)cyclopropanecarboxamide] | 3.06 µM |  | 19.3% | > 10 µM
O=C(Nc1cncc(-c2cc3c(-c4cc5cccnc5[nH]4)n[nH]c3cn2)c1)c1ccccc1 [Compound 263, N-(5-(3-(1H-Pyrrolo[2,3-b]pyridin-2-yl)-1H-pyrazolo[3,4-c]pyridin-5-yl)pyridin-3-yl)benzamide] | > 10 µM | 39.2% | 17% | > 10 µM
CCCC(=O)Nc1cncc(-c2cc3c(-c4cc5c(-c6cc(F)cc(NCCN(C)C)c6)ccnc5[nH]4)n[nH]c3cn2)c1 [Compound 465, N-(5-(3-(4-(3-((2-(Dimethylamino)ethyl)amino)-5-fluorophenyl)-1H-pyrrolo [2,3-b]pyridin-2-yl)-1H-pyrazolo[3,4-c]pyridin-5-yl)pyridin-3-yl)butyramide] | > 10 µM | 21.5% | 16.1% | > 10 µM
c1cc(N2CCCCC2)c2cc(-c3n[nH]c4cnc(-c5cncc(CN6CCCC6)c5)cc34)[nH]c2n1 [Compound 182, 3-(4-(Piperidin-1-yl)-1H-pyrrolo[2,3-b]pyridin-2-yl)-5-(5-(pyrrolidin-1-ylmethyl)pyridin-3-yl)-1H-pyrazolo[3,4-c]pyridine] | > 10 µM | 39% | 41.4% | > 10 µM
Cc1ccncc1-c1cc2c(-c3cc4c(-c5ccncc5)ccnc4[nH]3)n[nH]c2cn1 [Compound 117, 5-(4-Methylpyridin-3-yl)-3-(4-(pyridin-4-yl)-1H-pyrrolo[2,3-b]pyridin-2-yl)-1H-pyrazolo[3,4-c]pyridine] | > 10 µM | 15.9% | 42.4% | > 10 µM
CN(C)CCNc1cc(F)cc(-c2ccnc3[nH]c(-c4n[nH]c5cnc(-c6cncnc6)cc45)cc23)c1 [Compound 475, N^1-(3-Fluoro-5-(2-(5-(pyrimidin-5-yl)-1H-pyrazolo[3,4-c]pyridin-3-yl)-1H-pyrrolo[2,3-b]pyridin-4-yl)phenyl)-N^2,N^2-dimethylethane-1,2-diamine] | > 10 µM | 6.3% | 10.9% | > 10 µM
Fc1cccc(-c2ccnc3[nH]c(-c4n[nH]c5cnc(-c6cncc(OCc7ccccc7)c6)cc45)cc23)c1 [Compound 518, 5-(5-(Benzyloxy)pyridin-3-yl)-3-(4-(3-fluorophenyl)-1H-pyrrolo[2,3-b]pyridin-2-yl)-1H-pyrazolo[3,4-c]pyridine] | > 10 µM | 0% | 3.3% | > 10 µM
